# Data as given in article PMC2361459, “Safety, tolerability and pharmacokinetics of intravenous ghrelin for cancer-related anorexia/cachexia: a randomised, placebo-controlled, double-blind, double-crossover study” (British Journal of Cancer, 2008).
# Assays:
# [1] = system: patients with advanced incurable cancer and anorexia/cachexia; experiment: Autonomic function: standard deviation of beat-to-beat intervals (SDNN); format: in vivo, human; settings: UD (n=9), ghrelin, P=NS
# Description: Autonomic dysfunction was assessed as described previously ([Strasser et al, 2006]). Standard deviation of beat-to-beat intervals (SDNN) was analysed at baseline and at end of study for 20 min in both the LD and UD; and in the UD, in addition, 30 min before infusion until after lunch on treatment days.
# (§1) All analyses were performed with SPSS (Version 11.5).
# growth hormone (GH) = experiment: Serum growth hormone (GH) response to i.v. ghrelin (IRMA); format: in vivo, human
# Description: (§2) Normal saline was used as placebo.
# (§3) For ghrelin assays, 5 ml blood was collected in a precooled EDTA vacutainer tube containing aprotinin (33 kIU), placed immediately on ice, and centrifuged (4°C, 3000 G, 5 min). For each millilitre of plasma, 10 μl PMSF-Isopropanol, 50 μl 1N-HCL, and 50 μl aprotinin were added, and aliquots were stored at −80°C until batch analysis. Serum was collected and cooled for GH, insulin-like growth factor 1 (IGF-1), interleukin-6 (IL-6), and leptin analysis. Testosterone radioimmunoassays (Diagnostic Products Corporation; Bühlmann, Salzburg, Austria) were performed from serum sent to routine safety labs. The radioimmunoassay kits used for total and active ghrelin were from Linco Research (St Charles, MO, USA); for GH (active GH IRMA immunoradiometric assay) from Diagnostic Systems Laboratory (Webster, TX, USA); for IGF-1 (human, bovine) from Peninsula Laboratories (San Carlos, CA, USA); for IL-6 (Quantikine human ELISA) from R&D Systems (Minneapolis, MN, USA); and for leptin (human RIA) from Millipore (Billerica, MA, USA).
# as §1
# cancer patients = settings: seven cancer patients; 5 pmol kg^−1 min^−1 for 180 min equals 3 μg kg^−1; no adverse effects; ref Neary et al, 2004; cited from earlier work
# Excerpt: In melanoma-bearing nude mice, ghrelin plasma concentration increased with cachexia progression ([Hanada et al, 2004]). In cancer patients with cachexia (various cancers, n=21 ([Garcia et al, 2005]); breast and colorectal cancer, n=18 ([Wolf et al, 2006]); lung cancer, n=21 ([Shimizu et al, 2003])), ghrelin morning fasting levels were 1.3- to 1.5-fold higher than in those without cachexia and healthy controls. In contrast, ghrelin levels were normal in subgroups of patients in one study (39%) ([Wolf et al, 2006]) and all patients in another study (gastric and colorectal cancer, n=58) ([Huang e ...
# interleukin-6 = experiment: Plasma IL-6 levels (ELISA); format: in vivo, human; settings: throughout the treatment period; results not shown
# Description: as §3
# [2] = system: patients with advanced incurable cancer and anorexia/cachexia; experiment: Radiological tumour measurements; format: in vivo, human
# Description: Patients were assessed at each visit by using the NCI-CTC toxicity criteria Version 3.0, including standard blood examinations (hematology, chemistry panels), and cardiology evaluations, including echocardiography at baseline and at end of study. […] On study day 7 and at end of study, patients were asked about their perception of their tolerance and preference of day 1 (and 7) vs day 4 (and 11) treatments. […] An independent radiologist reviewed all films made before baseline, at baseline, and at end of study to judge tumour size and dynamics.
# [3] = system: insulin-like growth factor 1; experiment: Serum insulin-like growth factor 1 (IGF-1) levels; format: in vivo, human
# Description: as §3, §1
# [4] = system: patients with advanced incurable cancer and anorexia/cachexia; settings: in vivo
# Description: In a randomised, double-blind, placebo-controlled, double-crossover trial, 4–5 days after baseline, patients received ghrelin on days 1 and 8 and placebo on days 4 and 11 or vice versa; end of study was day 17/18 (Figure 1).
# On treatment days, patients ingested only water from midnight to breakfast. In the outpatient clinic, safety laboratory values and fasting hormone blood samples (including testosterone in male patients) were drawn at 0800 hours; venous access was maintained for pharmacokinetics. Patients received a standardised breakfast (120 g bread, 20 g butter, 60 g jam, 200 ml coffee with milk). At 1000 hours, a second i.v. line was inserted in the other arm for treatment given from 1030 to 1130 hours. Immediately after the end of the infusion, patients walked for approximately 5 min the 90 m to the restaurant where they received priority serving, starting the meal within 5 min.
# Ghrelin of Good Manufacturing Practice quality was purchased from Clinalfa (Merck Biosciences, Switzerland) as vials of 88 μg, stored at −20°C, and dissolved in 250 ml normal saline by the hospital pharmacy immediately before application. The treatment was titrated up within the first 10 min (20% increase each 2 min) and maintained for the next 50 min. The lower-dose group (LD) received 10 pmol kg^−1 min^−1 (equals 0.0336 μg kg^−1 min^−1, approximately 2 μg kg^−1). […] After observing treatment tolerance in the LD patients, we administered the upper-dose group (UD) 40 pmol kg^−1 min^−1 (approximately 8 μg kg^−1). Normal saline was used as placebo.
# Patients were assessed at each visit by using the NCI-CTC toxicity criteria Version 3.0, including standard blood examinations (hematology, chemistry panels), and cardiology evaluations, including echocardiography at baseline and at end of study. During the treatment phase, research personnel regularly contacted patients at home during the daytime to check for their safety. […] On study day 7 and at end of study, patients were asked about their perception of their tolerance and preference of day 1 (and 7) vs day 4 (and 11) treatments.
# [5] = parameters: species or system human; settings: in vivo
# Description: as §2, §3, §1
# [6] = stated in discussion, no reference given; cited from earlier work
# Description: Ghrelin levels were normal before infusion at 1030 hours. Renal function was not impaired. These unexpected findings of total, but not active, ghrelin remain unexplained at present but may indeed be without any physiological significance.
# [7] = system: patients with advanced incurable cancer and anorexia/cachexia; settings: human, in vivo
# Description: On study day 7 and at end of study, patients were asked about their perception of their tolerance and preference of day 1 (and 7) vs day 4 (and 11) treatments.
# For exploratory analyses of patients' preference of treatment, we used the exact binominal test.
structure (smiles),measurement,setting,value
CCCCCCCC(=O)OC[C@H](NC(=O)[C@H](CO)NC(=O)CN)C(=O)N[C@@H](Cc1ccccc1)C(=O)N[C@@H](CC(C)C)C(=O)N[C@@H](CO)C(=O)N1CCC[C@H]1C(=O)N[C@@H](CCC(=O)O)C(=O)N[C@@H](Cc1cnc[nH]1)C(=O)N[C@@H](CCC(N)=O)C(=O)N[C@@H](CCCNC(=N)N)C(=O)N[C@H](C(=O)N[C@@H](CCC(N)=O)C(=O)N[C@@H](CCC(N)=O)C(=O)N[C@@H](CCCNC(=N)N)C(=O)N[C@@H](CCCCN)C(=O)N[C@@H](CCC(=O)O)C(=O)N[C@@H](CO)C(=O)N[C@@H](CCCCN)C(=O)N[C@@H](CCCCN)C(=O)N1CCC[C@H]1C(=O)N1CCC[C@H]1C(=O)N[C@@H](C)C(=O)N[C@@H](CCCCN)C(=O)N[C@@H](CC(C)C)C(=O)N[C@@H](CCC(N)=O)C(=O)N1CCC[C@H]1C(=O)N[C@@H](CCCNC(=N)N)C(=O)O)C(C)C [ghrelin],mean SDNN,"[1]; week 1, placebo 78±35",84 ± 40 ms
same,mean SDNN,"[1]; week 2, placebo 80±27",75 ± 35 ms
same,mean difference of the peak GH levels (of week 1 and week 2) compared to baseline,"growth hormone (GH); LD, 10 pmol kg^−1 min^−1 (about 2 μg kg^−1) i.v., SD 6, P=0.004 vs UD",28 ng/mL
same,mean difference of the peak GH levels (of week 1 and week 2) compared to baseline,"growth hormone (GH); UD, 40 pmol kg^−1 min^−1 (about 8 μg kg^−1) i.v., SD 20, P=0.004 vs LD",50 ng/mL
same,peak increase of GH,"growth hormone (GH); upper-dose ghrelin 8 μg kg^−1 i.v. over 60 min, cancer patients",42 ng/mL
same,"energy intake with i.v. ghrelin, higher than with placebo",cancer patients,31%
same,plasma levels of IL-6,interleukin-6,did not change
same,patients with progressive disease (PD) during the study period,"[2]; both dose groups, crossover ghrelin/placebo",two
same,tumour-growth dynamics,[2]; short intervals of tumour measurements,no major unexpected tumour-growth dynamics
same,mean IGF-1 at day 17/18,"[3]; LD (n=7), ±994",1359 pg per 100 μl
same,mean IGF-1 at day 17/18,"[3]; UD (n=9), ±495",1096 pg per 100 μl
same,insulin-like growth factor 1 levels,"[3]; both dose groups, over the study",did not change
same,"abdominal pain, between infusion days (drug-related adverse events, grade 1 or 2)",[4],2
same,"abdominal pain, during infusion on treatment days (drug-related adverse events, grade 1 or 2)",[4],3
same,"abnormal liver tests or low potassium, possibly or probably related adverse events",[4],three
same,"asthenia, during infusion on treatment days (drug-related adverse events, grade 1 or 2)",[4],1
same,body temperature and oxygen saturation during and after the infusion,[4],remained unchanged
same,"diarrhea, between infusion days (drug-related adverse events, grade 1 or 2)",[4],1
same,"dry mouth, during infusion on treatment days (drug-related adverse events, grade 1 or 2)",[4],3
same,"increased CRP, possibly or probably related adverse events",[4],two
same,"nausea, between infusion days (drug-related adverse events, grade 1 or 2)",[4],1
same,"shortness of breath (overeaten, aspiration), during infusion on treatment days (drug-related adverse events, grade 1 or 2)",[4],1
same,"sweating, during infusion on treatment days (drug-related adverse events, grade 1 or 2)",[4],2
same,"vomiting, between infusion days (drug-related adverse events, grade 1 or 2)",[4],1
same,"worsening of pre-existing neuropathy, during infusion on treatment days (drug-related adverse events, grade 1 or 2)",[4],1
same,morning fasting total ghrelin levels 3 days after the prior ghrelin infusion compared to after placebo,[5],elevated
same,half-life,[6],approximately 15 min
same,mean scores for tolerability of the study medication immediately after infusion and after lunch,[7],did not differ between ghrelin and placebo
